Data reported in the supplement of paper PMC10307832.

Compound: C/C(=N\NC(=S)N1CCC1)/C2=CC=CC=N2
Experiment: relative viability (nuclei count vs DMSO), 5 days (fraction); higher = more cells survive
In short: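 On vehicle-anchored 1536-well plates, lung cancer cell lines held overnight at 37 °C were pinned with five library-drug doses (not always all listed) spaced by √10. With no medium change over 5 days, they were then fixed, permeabilised and Hoechst-stained in one step and imaged at 4×. MetaXpress counted nuclei, and viability is the median across plates of treated-well over vehicle-well nuclei. Acceptance needed control CV below 25% and at least one doubling.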

Cell Line	relative viability (0.05 µM)	relative viability (0.1581 µM)	relative viability (0.5 µM)	relative viability (1.581 µM)	relative viability (5 µM)
201T	0.432	0.443	0.353	0.345	0.309
A-427	0.16	0.173	0.15	0.144	0.156
ABC-1	0.38	0.303	0.245	0.259	0.361
BEN	0.278	0.237	0.276	0.23	0.227
CAL-12T	0.197	0.181	0.16	0.149	0.133
COR-L23	0.148	0.133	0.138	0.113	0.102
COR-L 105	0.287	0.364	0.342	0.245	0.292
Calu-6	0.118	0.147	0.154	0.12	0.14
ChaGo-K-1	0.204	0.227	0.2	0.18	0.186
EKVX	0.129	0.138	0.118	0.153	0.161
EMC-BAC-2	0.215	0.237	0.219	0.189	0.207
EPLC-272H	0.163	0.161	0.124	0.0926	0.136
H3255	0.316	0.331	0.273	0.254	0.274
HARA	0.193	0.21	0.138	0.143	0.138
HCC-15	0.0583	0.0886	0.0939	0.094	0.0906
HCC-44	0.351	0.279	0.299	0.246	0.24
HCC-78	0.459	0.472	0.355	0.232	0.234
HCC-366	0.0382	0.0453	0.0381	0.0627	0.0401
HCC-827	0.44	0.359	0.316	0.275	0.205

Cell Line	relative viability (0.05 µM)	relative viability (0.1581 µM)	relative viability (0.5 µM)	relative viability (1.581 µM)	relative viability (5 µM)
HOP-62	0.111	0.0963	0.114	0.11	0.114
IA-LM	0.0692	0.0771	0.0669	0.0644	0.0517
LC-2-ad	0.209	0.242	0.217	0.163	0.231
LCLC-97TM1	0.0886	0.109	0.0593	0.0801	0.0822
LCLC-103H	0.336	0.331	0.347	0.335	0.357
LK-2	0.172	0.182	0.18	0.14	0.176
LOU-NH91	0.5	0.572	0.553	0.42	0.464
LU99A	0.161	0.209	0.162	0.145	0.182
LXF-289	0.276	0.313	0.278	0.292	0.119
NCI-H23	0.17	0.196	0.187	0.154	0.172
NCI-H322M	0.337	0.337	0.352	0.329	0.35
NCI-H358	0.132	0.125	0.143	0.119	0.114
NCI-H441	0.233	0.175	0.185	0.145	0.123
NCI-H460	0.0678	0.0619	0.0798	0.0529	0.0177
NCI-H520	0.164	0.17	0.141	0.16	0.172
NCI-H522	0.334	0.389	0.351	0.346	0.358
NCI-H596	0.307	0.311	0.257	0.222	0.263
NCI-H647	0.114	0.116	0.136	0.115	0.0991
NCI-H650	0.22	0.232	0.222	0.196	0.175
